We go through three molecules from US6995143B2, “Macrolides with antibacterial activity” (Basilea Pharmaceutica AG, priority 2002, dated 2006).

Assay type in all cases: cell-based
Assay [1] deals with Escherichia coli ATCC 25922. Nature of the assay: MIC, standard microdilution technique. From the text: (§1) The antibacterial activities of the compounds have been determined by standard microdilution technique (National Committee for Clinical Laboratory Standards. 2000. Methods for Dilution Antimicrobial Susceptibility Tests for Bacteria that Grow Aerobically, 5th edition. Approved standard M7-A5. National Committee for Clinical Laboratory Standards, Wayne, Pa.).
A general note: In broth dilution the organism is exposed to a series of concentrations in liquid medium.

The subject of assay [2] is Staphylococcus aureus 1086. Nature of the assay: MIC, standard microdilution technique.
Source text: as §1

Assay [3] deals with Staphylococcus aureus 745. Nature of the assay: MIC, standard microdilution technique.
Source text: as §1

Assay [4] has as its system Staphylococcus aureus ATCC 29213. Description: MIC, standard microdilution technique.
Source text: as §1

Assay [5] has as its system Streptococcus pneumoniae 12288. Nature of the assay: MIC, standard microdilution technique.
Source text: as §1

Assay [6] has as its system Streptococcus pneumoniae SL199T. Nature of the assay: MIC, standard microdilution technique.
Source text: as §1

The test system of assay [7] is Streptococcus pneumoniae l/l. Nature of the assay: MIC, standard microdilution technique.
Source text: as §1

Assay [8] deals with Streptococcus pneumoniae ¼. Nature of the assay: MIC, standard microdilution technique.
Source text: as §1

For assay [9], the system named is Haemophilus influenzae 12214. Description: MIC, standard agar dilution method using HTM medium. From the text: (§2) The biological activities of compounds of the present invention against Haemophilus influenzae have been determined by standard agar dilution method using HTM medium (National Committee for Clinical Laboratory Standards. 2000. Methods for Dilution Antimicrobial Susceptibility Tests for Bacteria that Grow Aerobically, 5th edition. Approved standard M7-A5. National Committee for Clinical Laboratory Standards, Wayne, Pa.).
For orientation: In agar dilution the substance is mixed into plates at graded concentrations.

In assay [10] the test system is Haemophilus influenzae B1501. The assay is described as above.
Source text: as §2

Assay [11] concerns Haemophilus influenzae QK12/87. The assay is described as above.
Source text: as §2

Assay [12] relates to Haemophilus influenzae QK50. Described as above.
Source text: as §2

≈ marks a conversion by molar mass, not a printed value. A value given as a limit tells only on which side of the number the result lay.

`CC[C@H]1OC(=O)[C@H](C)C(=O)[C@H](C)[C@@H](O[C@@H]2O[C@H](C)C[C@H](N(C)C)[C@H]2O)[C@](C)(OC)C[C@@H](C)C(=O)[C@H](C)[C@H]2[C@@H](SCC#Cc3ccc(C#N)cc3)C(=O)O[C@@]21C` (single isomer, unassigned) [Example 23]: the “minimum inhibitory concentration (MIC), Strain D” value in [1] is more than 32 µg/mL. The “minimum inhibitory concentration (MIC), Strain B” value in assay [2] stood at 16 µg/mL (≈ 20.4 µM). The “minimum inhibitory concentration (MIC), Strain C” value in assay [3] was more than 32 µg/mL. The “minimum inhibitory concentration (MIC), Strain A” value in assay [4] worked out at 16 µg/mL (≈ 20.4 µM). The “minimum inhibitory concentration (MIC), Strain H” value in assay [5] is more than 32 µg/mL. The “minimum inhibitory concentration (MIC), Strain G” value in assay [6] is more than 32 µg/mL. Also, the “minimum inhibitory concentration (MIC), Strain E” value in [7] is 1 µg/mL (≈ 1.28 µM). Besides, in assay [8], the “minimum inhibitory concentration (MIC), Strain F” value was more than 32 µg/mL. For the same molecule, the “minimum inhibitory concentration (MIC), Strain K” value in [9] is more than 32 µg/mL. In assay [10], the “minimum inhibitory concentration (MIC), Strain M” value was more than 32 µg/mL. Further, in assay [11], the “minimum inhibitory concentration (MIC), Strain I” value was more than 32 µg/mL. Moreover, the “minimum inhibitory concentration (MIC), Strain L” value in assay [12] was more than 32 µg/mL.

On to `CC[C@H]1OC(=O)[C@H](C)C(=O)[C@H](C)[C@@H](O[C@@H]2O[C@H](C)C[C@H](N(C)C)[C@H]2O)[C@](C)(OC)C[C@@H](C)C(=O)[C@H](C)[C@H]2[C@@H](SCCNS(=O)(=O)c3ccc(-c4ccccn4)s3)C(=O)O[C@@]21C` (single isomer, unassigned) [Example 21], for which the “minimum inhibitory concentration (MIC), Strain D” value in assay [1] is more than 32 µg/mL. In addition, the “minimum inhibitory concentration (MIC), Strain B” value in [2] came to 0.125 µg/mL (≈ 0.137 µM). Moreover, the “minimum inhibitory concentration (MIC), Strain C” value in assay [3] is more than 32 µg/mL. Further, the “minimum inhibitory concentration (MIC), Strain A” value in assay [4] was 0.125 µg/mL (≈ 0.137 µM). Moreover, the “minimum inhibitory concentration (MIC), Strain H” value in assay [5] amounted to 32 µg/mL (≈ 35.2 µM). Further, the “minimum inhibitory concentration (MIC), Strain G” value in [6] is 16 µg/mL (≈ 17.6 µM). In addition, the “minimum inhibitory concentration (MIC), Strain E” value in [7] is “<=0.06 μg/ml”. Further, the “minimum inhibitory concentration (MIC), Strain F” value in assay [8] stood at 8 µg/mL (≈ 8.79 µM). Besides, the “minimum inhibitory concentration (MIC), Strain K” value in assay [9] worked out at 16 µg/mL (≈ 17.6 µM). Besides, in assay [10], the “minimum inhibitory concentration (MIC), Strain M” value was 16 µg/mL (≈ 17.6 µM). Further, in assay [11], the “minimum inhibitory concentration (MIC), Strain I” value amounted to 32 µg/mL (≈ 35.2 µM). Also, in assay [12], the “minimum inhibitory concentration (MIC), Strain L” value came to 16 µg/mL (≈ 17.6 µM).

On to `CC[C@H]1OC(=O)[C@H](C)C(=O)[C@H](C)[C@@H](O[C@@H]2O[C@H](C)C[C@H](N(C)C)[C@H]2O)[C@](C)(OC)C[C@@H](C)C(=O)[C@H](C)[C@H]2[C@@H](SCCNC(=O)c3cccnc3)C(=O)O[C@@]21C` (single isomer, unassigned) [Example 19, (3R or S, 3aR, 4R or S, 6R, 8R, 9R, 10R, 12R, 15R, 15aS) -15-Ethyloctahydro-8-methoxy-4,6,8,10,12,15a-hexamethyl-3-[[2-[(3-pyridinylcarbonyl)amino]ethyl]thio]-9-[[-3,4,6-trideoxy-3-(dimethylamino)-β-D-xylo-hexopyranosyl]oxy]-2H-furo [2,3-c] oxacyclotetradecin-2,5,11,13 (3H,6H,12H)-tetrone], for which the MIC in assay [1] (ATCC25922, read-out: minimum inhibitory concentration (MIC), Strain D) was more than 32 µg/mL; in [2] (read-out: minimum inhibitory concentration (MIC), Strain B), 0.25 µg/mL (≈ 0.316 µM); in assay [3] (read-out: minimum inhibitory concentration (MIC), Strain C), more than 32 µg/mL; in assay [4] (ATCC29213, read-out: minimum inhibitory concentration (MIC), Strain A), 0.25 µg/mL (≈ 0.316 µM); in [5] (read-out: minimum inhibitory concentration (MIC), Strain H), more than 32 µg/mL; in assay [6] (read-out: minimum inhibitory concentration (MIC), Strain G), 32 µg/mL (≈ 40.4 µM). For the same molecule, the MIC in [7] (read-out: minimum inhibitory concentration (MIC), Strain E) is 0.125 µg/mL (≈ 0.158 µM); in assay [8] (read-out: minimum inhibitory concentration (MIC), Strain F), 2 µg/mL (≈ 2.53 µM); in assay [9] (read-out: minimum inhibitory concentration (MIC), Strain K), 4 µg/mL (≈ 5.05 µM); in assay [10] (read-out: minimum inhibitory concentration (MIC), Strain M), 4 µg/mL (≈ 5.05 µM); in assay [11] (read-out: minimum inhibitory concentration (MIC), Strain I) it was 4 µg/mL (≈ 5.05 µM); in [12] (read-out: minimum inhibitory concentration (MIC), Strain L) it was 8 µg/mL (≈ 10.1 µM).
